Converted amounts (≈) assume the structure as drawn. Like-named read-outs stand apart in the source and are kept apart here.
What was measured:
[1] = test system: mammalian red blood cells; conditions: 37° C., 1 hour
Method: Candidate cationic peptides may be further tested for their toxicity to normal mammalian cells. An exemplary assay is a red blood cell (RBC) (erythrocyte) hemolysis assay. Briefly, in this assay, red blood cells are isolated from whole blood, typically by centrifugation, and washed free of plasma components. A 5% (v/v) suspension of erythrocytes in isotonic saline is incubated with different concentrations of peptide analogue. […] After incubation for approximately 1 hour at 37° C., the cells are centrifuged, and the absorbance of the supernatant at 540 nm is determined. A relative measure of lysis is determined by comparison to absorbance after complete lysis of erythrocytes using NH4Cl or equivalent (establishing a 100% value). A peptide with <10% lysis at 100 μg/ml is suitable. Preferably, there is <5% lysis at 100 μg/ml. Such peptides that are not lytic, or are only moderately lytic, are desirable and suitable for further screening.
Cationic peptides are tested for toxicity towards eukaryotic cells by measuring the extent of lysis of mammalian red blood cells (RBC). Briefly, in this assay, red blood cells are separated from whole blood by centrifugation and washed free of plasma components. A 5% (v/v) washed red blood cell suspension is prepared in isotonic saline. An aliquot of peptide in formulation is then added and mixed in. After incubation at 37° C. for 1 hour with constant agitation, the solution is centrifuged and the supernatant measured for absorbance at 540 nm to detect released hemoglobin.
A combination of cationic peptide and antibiotic agent is tested for toxicity towards eukaryotic cells by measuring the extent of lysis of mammalian red blood cells. Briefly, red blood cells are separated from whole blood by centrifugation, washed free of plasma components, and resuspended to a 5% (v/v) suspension in isotonic saline. […] Following incubation with constant agitation at 37° C. for 1 hour, the solution is centrifuged, and the absorbance of the supernatant is measured at 540 nm, which detects released hemoglobin. […]

[2] = Cell death by Cytotox (Promega) lactate dehydrogenase release; assay type: cell-based; conditions: LDH release
Method: In addition, APO-peptides and parent peptides are tested against a panel of cancer cell lines. Cell death is measured using the Cytotox (Promega) assay kit which measures the release of lactate dehydrogenase.
PBL, peripheral blood lymphocytes; HUVEC, human umbilical vein endothelial cells; H460,non-small lung tumor; K562, chronic myelogenous leukemia; DoHH-2, B-cell cell lymphoma; P388, lymphocytic leukemia; P388ADR, lymphocytic leukemia, multidrug resistant; MCF-7, breast carcinoma; MCF-7ADR, breast carcinoma, multidrug resistant.

[3] = Single dose toxicity, intraperitoneal injection, formulations; conditions: mouse, in vivo, ip, outbred ICR mice (Table 32)
Method: The single dose toxicity of a cationic peptide and antibiotic agent combination is examined in outbred ICR mice. Intraperitoneal injection of the combination in isotonic saline is carried out at increasing dose levels. The survival of the animals is monitored for 7 days. The number of animals surviving at each dose level is used to determine the maximum tolerated dose (MTD). In addition, the MTD can be determined after administration of the peptide and agent by different routes, at different time points, and in different formulations.

For CC[C@H](C)[C@H](NC(=O)[C@H](CC(C)C)NC(=O)[C@H](C)NC(=O)[C@@H]1CCCN1C(=O)[C@H](CC(C)C)NC(=O)CNC(=O)[C@@H](NC(=O)[C@@H](NC(=O)[C@H](CC(C)C)NC(=O)[C@@H](NC(=O)[C@H](CCCCN)NC(=O)[C@H](CCCCN)NC(=O)[C@@H](NC(=O)[C@H](C)NC(=O)[C@@H](NC(=O)[C@@H](NC(=O)[C@H](CC(C)C)NC(=O)[C@H](CCCCN)NC(=O)[C@H](CCCCN)NC(=O)[C@@H](NC(=O)[C@H](Cc1ccccc1)NC(=O)[C@H](CO)NC(=O)[C@H](CCCCN)NC(=O)[C@H](Cc1c[nH]c2ccccc12)NC(=O)[C@@H](N)CCCCN)[C@@H](C)CC)[C@@H](C)O)[C@@H](C)O)C(C)C)C(C)C)[C@@H](C)O)[C@@H](C)O)C(=O)N[C@@H](CO)C(=O)O [MBI 29], the “% Lysis” value [1] was 1.9%, the CC50 ([2]; DoHH-2 B-cell lymphoma cells, read-out: LC50 ± S.E., DoHH-2) was 2.1 ± 0.5 µg/mL (≈ 0.731 µM) and the CC50 ([2]; H460 non-small lung tumor cells, read-out: LC50 ± S.E., H460) was 12.6 ± 10 µg/mL (≈ 4.39 µM). The CC50 ([2]; K562, read-out: LC50 ± S.E., K562) was 1 µg/mL (≈ 0.348 µM), the CC50 ([2]; MCF-7ADR multidrug resistant breast carcinoma cells, read-out: LC50 ± S.E., MCF-7 ADR) was 3.2 ± 1 µg/mL (≈ 1.11 µM) and the CC50 ([2]; MCF-7 breast carcinoma cells, read-out: LC50 ± S.E., MCF-7) was 4 ± 2 µg/mL (≈ 1.39 µM). The CC50 ([2]; P388, read-out: LC50 ± S.E., P388) was 1.4 ± 0.5 µg/mL (≈ 0.487 µM), the CC50 ([2]; P388 ADR, read-out: LC50 ± S.E., P388 ADR) was 2 ± 0.2 µg/mL (≈ 0.696 µM) and the CC50 ([2]; PBL, peripheral blood lymphocytes, read-out: LC50 ± S.E., PBL) was 12 ± 10 µg/mL (≈ 4.18 µM). For the same molecule, the CC50 ([2]; human, human umbilical vein endothelial cells (HUVEC), read-out: LC50 ± S.E., HUVEC) was 10 µg/mL (≈ 3.48 µM) and the MTD at 7 days [3] was 24 mg/kg.

— patent publication US20020035061A1, “COMPOSITIONS AND METHODS FOR TREATING INFECTIONS USING CATIONIC PEPTIDES ALONE OR IN COMBINATION WITH ANTIBIOTICS” (priority 1996, published 2002)
